In the supplement of paper PMC5908809:

Tests used:
[1] = test system: normal NK cells expanded with K562-aAPC; experiment: percent inhibition of viability; higher = more inhibition; conditions: 72 h, IL-2 2.5 ng/mL
Procedure: (§1)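 Drug sensitivity and resistance testing on K562-aAPC-expanded normal NK cells: 5 concentrations (10-fold steps over a 10,000-fold range), 72 h at 37 °C, viability by CellTiter-Glo normalised to DMSO and benzethonium chloride controls; DSS from the fitted curve.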

[2] = test system: normal NK cells expanded with K562-aAPC; experiment: drug sensitivity score (DSS) (DSS units); higher = more sensitive; extreme values may be limits of the assay; conditions: 72 h; IL-2 2.5 ng/mL
Procedure: as §1

NK-YS (IL-2 2.5 ng/mL) [3] = experiment: as above; conditions: 72 h
KAI3 (IL-2 2.5 ng/mL) [4] = experiment: as above; conditions: 72 h
NK-92 (IL-2 2.5 ng/mL) [5] = experiment: as above; conditions: 72 h
NKL (IL-2 2.5 ng/mL) [6] = experiment: as above; conditions: 72 h
KHYG-1 (IL-2 2.5 ng/mL) [7] = experiment: as above; conditions: 72 h
[8] = test system: normal primary NK cells, pool 3 (3 donors) (IL-2 2.5 ng/mL); experiment: as above; conditions: 72 h
DERL-7 (IL-2 2.5 ng/mL) [9] = experiment: as above; conditions: 72 h
SNK-6 (IL-2 2.5 ng/mL) [10] = experiment: as above; conditions: 72 h
[11] = test system: normal primary NK cells, pool 1 (3 donors) (IL-2 2.5 ng/mL); experiment: as above; conditions: 72 h
YT (IL-2 2.5 ng/mL) [12] = experiment: as above; conditions: 72 h
[13] = test system: normal primary NK cells, pool 2 (3 donors) (IL-2 2.5 ng/mL); experiment: as above; conditions: 72 h
IMC-1 (IL-2 20 ng/mL) [14] = experiment: as above; conditions: 72 h
[15] = test system: normal primary NK cells, pool 1 (3 donors), resting (IL-2 0 ng/mL); experiment: as above; conditions: 72 h
NK-YS (IL-2 2.5 ng/mL) [16] = experiment: percent inhibition of viability; higher = more inhibition; conditions: 72 h
KAI3 (IL-2 2.5 ng/mL) [17] = experiment: as above; conditions: 72 h
NK-92 (IL-2 2.5 ng/mL) [18] = experiment: as above; conditions: 72 h
NKL (IL-2 2.5 ng/mL) [19] = experiment: as above; conditions: 72 h
KHYG-1 (IL-2 2.5 ng/mL) [20] = experiment: as above; conditions: 72 h
[21] = test system: normal primary NK cells, pool 3 (3 donors) (IL-2 2.5 ng/mL); experiment: as above; conditions: 72 h
DERL-7 (IL-2 2.5 ng/mL) [22] = experiment: as above; conditions: 72 h
SNK-6 (IL-2 2.5 ng/mL) [23] = experiment: as above; conditions: 72 h
[24] = test system: normal primary NK cells, pool 1 (3 donors) (IL-2 2.5 ng/mL); experiment: as above; conditions: 72 h
YT (IL-2 2.5 ng/mL) [25] = experiment: as above; conditions: 72 h
[26] = test system: normal primary NK cells, pool 2 (3 donors) (IL-2 2.5 ng/mL); experiment: as above; conditions: 72 h
IMC-1 (IL-2 20 ng/mL) [27] = experiment: as above; conditions: 72 h
[28] = test system: normal primary NK cells, pool 1 (3 donors), resting (IL-2 0 ng/mL); experiment: as above; conditions: 72 h

COc1cc(OC)c(/C=C/S(=O)(=O)Cc2ccc(OC)c(NCC(=O)O)c2)c(OC)c1 [Rigosertib] (max concentration tested 10000 nM)
percent inhibition of viability [%]
Conditions | 1 nM | 10 nM | 100 nM | 1000 nM | 10000 nM
DERL-7 (IL-2 2.5 ng/mL) [22] | -3.53 | 3.03 | 91 | 98 | 97.8
IMC-1 (IL-2 20 ng/mL) [27] | -6.34 | -1.76 | 93.8 | 99.2 | 97.8
KAI3 (IL-2 2.5 ng/mL) [17] | -3.07 | 5.22 | 55 | 71.9 | 67.5
KHYG-1 (IL-2 2.5 ng/mL) [20] | -1.12 | -2.53 | 96.6 | 102 | 97.6
NK-92 (IL-2 2.5 ng/mL) [18] | -6.11 | 2.36 | 77.7 | 97.1 | 94.3
NK-YS (IL-2 2.5 ng/mL) [16] | -0.07 | 0.08 | 70.9 | 76.8 | 77.4
NKL (IL-2 2.5 ng/mL) [19] | -16.2 | -17.7 | 87.4 | 92.2 | 85.4
SNK-6 (IL-2 2.5 ng/mL) [23] | -14.2 | 3 | 76.5 | 95.2 | 97.2
YT (IL-2 2.5 ng/mL) [25] | -2.58 | 3.15 | 82.9 | 98.4 | 95.7
[1] | -1.17 | -9.48 | -1.76 | 57.7 | 82.7
[21] | -13.6 | -15.7 | -12.6 | -0.93 | 21.3
[24] | -11.3 | -13.9 | -2.02 | 15.3 | 45.3
[26] | -8.68 | -8.95 | -9.12 | 13.6 | 37.4
[28] | -8.83 | -4.84 | 6.87 | 37.8 | 69.8

Conditions | drug sensitivity score
DERL-7 (IL-2 2.5 ng/mL) [9] | 29.1
IMC-1 (IL-2 20 ng/mL) [14] | 29.3
KAI3 (IL-2 2.5 ng/mL) [4] | 20.3
KHYG-1 (IL-2 2.5 ng/mL) [7] | 29.8
NK-92 (IL-2 2.5 ng/mL) [5] | 26.8
NK-YS (IL-2 2.5 ng/mL) [3] | 23
NKL (IL-2 2.5 ng/mL) [6] | 26.7
SNK-6 (IL-2 2.5 ng/mL) [10] | 26.8
YT (IL-2 2.5 ng/mL) [12] | 27.8
[2] | 11.3
[8] | 0.62
[11] | 4.54
[13] | 3.7
[15] | 8.37
